The conditions of series [1]: cited from earlier work.
For series [2] the following is noted: in vivo; cited from earlier work.
Series [3] has as its system rat air pouch model of crystal-induced arthropathy (MSU). The series is described as follows: Rat air pouch model, Example 9 (Compound 4 in combination with colchicine). Type of series: in vivo. The protocol:
Sodium hydroxide (40 g, Fisher Scientific) was dissolved in de-ionized water (100 mL, dH2O) to provide a 10N solution. […] The resulting clear solution was cooled to 4-8° C., resulting in the formation of crystals, which were isolated by filtration, washed three times with de-ionized wa[…]) and dried at 37° C. The dried mono sodium urate crystals were sifted into an air-tight container for storage. […] Methylcellulose (0.4 g, Sigma) was dissolved in de-ionized water (100 mL) to provide a 0.4% solution used as vehicle. […] Test compounds were suspended in vehicle to provide the desired concentrations, and diluted accordingly. […] The animals were in apparent good health with no clinical signs of disease or distress. The rats were placed in quarantine with daily inspections, ear notched for identification purposes and shaved at the nape of the neck. The rats were anesthetized (isoflurane), and the nape of the neck was cleansed with 70% isopropanol (Butler Animal Health Supply) followed by povidone-iodine solution (Ricca Chemical Co.). Sterile air (30 mL, 0.2 μm, Millipore) was injected subcutaneously using a 23 G×11⁄2 inch needle fixed to a 30 mL syringe. The rats were returned to routine housing with no adverse reactions observed. The rats were anesthetized (isoflurane), and the nape of the neck was cleansed with 70% isopropanol (Butler Animal Health Supply) followed by povidone-iodine solution (Ricca Chemical Co.). Sterile air (15 mL, 0.11 μm, Millipore) was injected subcutaneously using a 23 G×11⁄2 inch needle fixed to a 20 mL syringe. The rats were returned to routine housing with no adverse reactions observed. The rats were weighed and sorted into treatment groups based on average body weight. As appropriate, the rats were dosed orally with test compound or vehicle (saline alone). […] Thirty minutes after SC injection or two hours after PO dosing, MSU (15 mL) was injected into the air pouch using an 18 G×2 inch needle fitted to a 20 mL syringe. Control group was injected with 15 mL sterile saline (vehicle). The injection sites were closed (collodion, Macron) and the rats returned to their cages with no adverse effects observed. Four hours after MSU/saline injection, the rats were anesthetized and heparinized saline (5 mL, 10 U/mL) was injected into the air pouch. […] An aliquot of the exudate was transferred to green Eppendorf tubes for total white blood cell (WBC) measurement. After allowing the MSU crystals to settle out for ten minutes, an aliquot of the exudate was transferred to heparinized microtainer tubes (Becton Dickinson) for differential white blood cell counts. The remainder of the exudate was centrifuged and an aliquot of the supernatants was dispensed to labeled clear Eppendorf tubes and stored at -80° C. The rats were exsanguinated into pre-chilled serum separator tubes, processed to serum, and 0.5 mL aliquot was stored at -80° C. in labeled Eppendorf tubes. […] [table]

A further series deals with PBMCs. The series is described as follows: Cell migration (chemotaxis) assay, PBMC counts. Type of series: cell-based. Particulars: 10 μM; MSU crystal conditioned media; FIG. 1B. The protocol: Primary blood monocytes (PMBC) were obtained from the lymphocyte layer (buffy coat) of peripheral blood from normal donors. Each leukopack (Interstate Blood Bank) was diluted with an equal volume of PBS, and 35 mL of blood preparation was over-laid onto 15 mL of Ficoll-Paque™ PLUS (GE Healthcare Bio-Sciences). Tubes were centrifuged at 700×g without breaks for 30 minutes at room temperature. The buffy coat interface was removed, added to PBS (40 mL), and centrifuged at 300×g. Any remaining erythrocytes in the cell pellet were lysed by incubating cells in red blood cell lysis buffer (10 mL, R&D Systems) for 10 minutes at room temperature. Following lysis, PBS (40 mL) was added and the cells centrifuged for 5 minutes at 200×g. The pellet was washed once with PBS and re-suspended in complete RPMI and seeded onto a BD Falcon™ 100 mm tissue culture dish (Cat. No. 353003). After one hour, the media was aspirated and the adherent cells (predominantly monocytes) were harvested using a cell scraper and used in chemotaxis assays. Chemotaxis was assayed in 48-well plates with BD Falcon FluoroBlok Multiwell inserts with 3 μm pores (Cat. No. 351161 or 351162) coated with hFN. […] Fluorescence emitted from cells that had migrated to the bottom surface of the insert was measured at various time points. Cells labeled with Calcein AM were read at 485/530 nm (Ex/Em) wavelength. […]

The test system of the next series is neutrophils. The series is described as follows: Cell migration (chemotaxis) assay, neutrophil counts. Type of series: cell-based. Particulars: 10 μM; MSU-conditioned media; FIG. 1A.
For series [4] the following is noted: cited from earlier work. This is another data set of the same source.
The target in the next series is T1, CXCR-2 (Homo sapiens, UniProt P25025).
T1 sequence (P25025 1-360): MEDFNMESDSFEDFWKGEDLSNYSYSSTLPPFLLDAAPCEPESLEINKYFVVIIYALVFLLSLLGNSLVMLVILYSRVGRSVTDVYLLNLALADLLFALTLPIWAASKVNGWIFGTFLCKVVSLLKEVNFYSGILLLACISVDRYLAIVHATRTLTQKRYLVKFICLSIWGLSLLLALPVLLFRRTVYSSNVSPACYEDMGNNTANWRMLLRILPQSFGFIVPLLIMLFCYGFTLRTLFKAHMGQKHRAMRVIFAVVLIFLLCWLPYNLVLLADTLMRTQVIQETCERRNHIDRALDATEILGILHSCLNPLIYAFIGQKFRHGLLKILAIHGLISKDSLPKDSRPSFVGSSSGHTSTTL
Particulars: in vitro; cited from earlier work.

The conditions of series [5]: dog; cited from earlier work.
For series [6] the following is noted: rat; cited from earlier work.
[7] abbreviates: 10 umol/kg PO + Colchicine 0.3 mpk SC, Group 10.

Like-named read-outs stand apart in the source and are kept apart here.

As for `COc1cc2c(c(OC)c1OC)-c1ccc(OC)c(=O)cc1[C@@H](NC(C)=O)CC2` [Colchicine, COLCHICINE, reference compound], the gastrointestinal side effects in series [1] (lower dose regimen: 1.2 mg at onset of acute gout attack, then 0.6 mg after one hour) is 24%. Moreover, the gastrointestinal side effects in series [1] (standard dose regimen: 1.2 mg at onset of acute gout attack, then 0.6 mg every hour for 6 hours) is 73%. In addition, in series [1] (standard dose regimen), the “Severe diarrhea, % of patients” value was 19% and the “vomiting, % of patients” value is 15%. The “eliminated unchanged in the urine” value in [2] is recorded as 10-20%. In [3] (0.3 mpk SC, Group 3), the “Avg Exudate Vol” value is reported as 12.4 mL, the “Avg Tot WBC” value was 120 ×10^6 and the Neutrophils was 101.9 ×10^6. Moreover, in series [3] (0.5 mpk SC, Group 4), the “Avg Exudate Vol” value is 8.8 mL, the “Avg Tot WBC” value is given as 58 ×10^6 and the Neutrophils was 42.7 ×10^6. For the same compound, in series [3] (1.0 mpk SC, Group 5), the “Avg Exudate Vol” value stood at 5.6 mL, the “Avg Tot WBC” value is 16 ×10^6 and the Neutrophils was 9.8 ×10^6.
Take `CC[C@@H](Nc1c(Nc2cccc(C(=O)N(C)C)c2O)c(=O)c1=O)c1ccc(C)o1` [Compound 2, (R)-2-hydroxy-N,N-dimethyl-3-((2-((1-(5-methylfuran-2-yl)propyl)amino)-3,4-dioxocyclobut-1-en-1-yl)amino)benzamide]: the “inhibition in migration in PBMCs” value in the series on PBMCs is on record as “significant inhibition in migration”. Further, the “inhibition of migration in neutrophils” value in the series on neutrophils was “significant inhibition of migration”.
Broadly, the bioavailability is the share of a dose that reaches the circulation, judged against a reference dose that is usually intravenous. Take `C[C@@H](Oc1cc(NS(=O)(=O)N2CCC2)nc(SCc2cccc(F)c2F)n1)[C@@H](O)CO` [Compound 3, N-(2-((2,3-difluorobenzyl)thio)-6-(((2R,3S)-3,4-dihydroxybutan-2-yl)oxy)pyrimidin-4-yl)azetidine-1-sulfonamide]: in series [4], the solubility properties result is on record as “good”. Also, at CXCR-2, the potency result is “high”. Besides, the half-life entry in series [5] is recorded as “long”. The bioavailability in series [6] is given as 49%.
Take `CC1CN(S(=O)(=O)Nc2cc(O[C@H](C)[C@@H](O)CO)nc(SCc3ccc(F)cc3)n2)C1` [Compound 4, N-(6-(((2R,3S)-3,4-dihydroxybutan-2-yl)oxy)-2-((4-fluorobenzyl)thio)pyrimidin-4-yl)-3-methylazetidine-1-sulfonamide]: the “Avg Exudate Vol” value in [3] (setting [7]) was 7.8 mL; in series [3] (10.0 umol/kg PO, Group 6) it was 12.5 mL; in [3] (30.0 umol/kg PO, Group 7), 6.7 mL; in series [3] (100 umol/kg PO, Group 8) it was 6 mL; in [3] (300 umol/kg PO, Group 9), 5.2 mL. Moreover, the “Avg Tot WBC” value is on record as 20 ×10^6 in [3] (setting [7]); 160 ×10^6 in series [3] (10.0 umol/kg PO, Group 6); 28.7 ×10^6 in series [3] (30.0 umol/kg PO, Group 7); 12 ×10^6 in [3] (100 umol/kg PO, Group 8); 8.1 ×10^6 in [3] (300 umol/kg PO, Group 9). Moreover, the Neutrophils in series [3] (setting [7]) is reported as 6.4 ×10^6; in series [3] (10.0 umol/kg PO, Group 6), 102.1 ×10^6; in series [3] (30.0 umol/kg PO, Group 7), 14 ×10^6; in [3] (100 umol/kg PO, Group 8), 3.8 ×10^6; in series [3] (300 umol/kg PO, Group 9) it was 4.3 ×10^6.

Source of the values: patent US10772886B2, “CXCR-2 inhibitors for treating crystal arthropathy disorders” (ARDEA BIOSCIENCES, INC., priority 2016, dated 2020).
